Like-named read-outs stand apart in the source and are kept apart here.
Legend:
[1] = tested on: H9 lymphocytes; assay: Cytotoxicity by trypan blue dye exclusion; type: cell-based; parameters: dose or concentration left out as unconfirmed
Text: Cytotoxicity of oligonucleotides was studied by culturing the cells with increasing concentration of oligonucleotide and by the trypan blue dye exclusion method.

[2] = tested on: HIV-1; assay: Anti-HIV activity: p24 expression by ELISA in HIV-1 infected H9 lymphocytes; type: cell-based; parameters: Inhibition of p24 (%): dose or concentration left out as unconfirmed; settings: for Inhibition of p24 (%): three days; for IC50: Human immunodeficiency virus 1, Lymphocyte, p24 expression, positive control
Procedure: H9 lymphocytes were infected with HIV-1 virions (≡0.01 - 0.1 TCID50/cell) for one hour at 37°C. After one hour, unadsorbed virions were washed and the infected cells were divided among wells of 24 well plates. To the infected cells, an appropriate concentration (from stock solution) of oligonucleotide was added to obtain the required concentration in 2 ml medium. In a positive control experiment ddC or AZT was added. The cells were then cultured for three days. At the end of three days, supernatant from the infected culture was collected and measured for p24 expression by ELISA. The level of expression of p24 was compared between oligonucleotide treated and untreated (no drug) infected cells.

[3] = Experiment 1, concentration 0.04
[4] = Experiment 1, concentration 0.08
[5] = Experiment 1, concentration 0.2
[6] = Experiment 1, concentration .0016
[7] = Experiment 2, concentration 0.0016
[8] = Experiment 2, concentration 0.008
[9] = Experiment 2, concentration 0.04
[10] = Experiment 2, concentration 0.2

Cc1cn([C@H]2C[C@H](N=[N+]=[N-])[C@@H](CO)O2)c(=O)[nH]c1=O [AZT]
% Cell Survival [1, 3]: 98% | % Cell Survival [1, 4]: 104% | % Cell Survival [1, 5]: 95% | % Cell Survival [1, 6]: 108% | % Cell Survival [1, 7]: 103% | % Cell Survival [1, 8]: 101% | % Cell Survival [1, 9]: 98% | % Cell Survival [1, 10]: 93% | Inhibition of p24 (%) [2, 3]: 73% | Inhibition of p24 (%) [2, 4]: 44% | Inhibition of p24 (%) [2, 5]: 90% | Inhibition of p24 (%) [2, 6]: 6% | Inhibition of p24 (%) [2, 7]: 6% | Inhibition of p24 (%) [2, 8]: 5% | Inhibition of p24 (%) [2, 9]: 65% | Inhibition of p24 (%) [2, 10]: 89% | IC50 ([2]; Experiment 1, read-out: IC50): 37 nM | IC50 ([2]; Experiment 2): 100 nM

Source: patent EP0649467B1, “SELF-STABILIZED OLIGONUCLEOTIDES AS THERAPEUTIC AGENTS” (HYBRIDON, Inc., priority 1992, dated 1994)
